Data: ChEMBL document CHEMBL3407338, “Synthesis and structure-activity relationship of novel 1,4-diazabicyclo[2.2.2]octane derivatives as potent antimicrobial agents” (Eur J Med Chem, 2015)
Converted amounts (≈) assume the structure as drawn.

Assays:
[1] = system: Staphylococcus aureus; experiment: Antimicrobial activity against 10^4 CFU/ml Staphylococcus aureus ATCC 25923 after 22 hrs by serial microdilution method; type: functional; details: ATCC 25923, 22 h
[2] = system: Escherichia coli; experiment: Antimicrobial activity against 10^7 CFU/ml Escherichia coli ATCC 25922 after 22 hrs by serial microdilution method; type: functional; details: ATCC 25922, 22 h
[3] = system: Candida albicans; experiment: Antimicrobial activity against 10^4 CFU/ml Candida albicans ATCC 32354 after 22 hrs by serial microdilution method; type: functional; details: ATCC 32354, 22 h
[4] = system: Escherichia coli; experiment: Antimicrobial activity against 10^4 CFU/ml Escherichia coli ATCC 25922 after 22 hrs by serial microdilution method; type: functional; details: ATCC 25922, 22 h
[5] = Cytotoxicity against mouse LMTK cells after 72 hrs by MTT assay; type: cell-based; details: L-M(TK-)
[6] = system: Salmonella enterica; experiment: Antimicrobial activity against Salmonella enterica ATCC 14028 at 1 ug/ml after 24 hrs by agar diffusion method; type: functional; details: ATCC 14028, 24 h, read-out: DIZ
[7] = system: Pseudomonas aeruginosa; experiment: Antimicrobial activity against 10^4 CFU/ml Pseudomonas aeruginosa ATCC 9027 after 22 hrs by serial microdilution method; type: functional; details: ATCC 9027, 22 h
[8] = system: Staphylococcus aureus; experiment: Antimicrobial activity against Staphylococcus aureus ATCC 25923 at 1 ug/ml after 24 hrs by agar diffusion method; type: functional; details: ATCC 25923, 24 h, read-out: DIZ
[9] = system: Pseudomonas aeruginosa; experiment: Antimicrobial activity against Pseudomonas aeruginosa ATCC 9027 at 1 ug/ml after 24 hrs by agar diffusion method; type: functional; details: ATCC 9027, 24 h, read-out: DIZ
[10] = system: MEF; experiment: Cytotoxicity against mouse MEF cells after 72 hrs by MTT assay; type: cell-based
[11] = system: Staphylococcus aureus; experiment: Antimicrobial activity against 10^7 CFU/ml Staphylococcus aureus ATCC 25923 after 22 hrs by serial microdilution method; type: functional; details: ATCC 25923, 22 h
[12] = system: RPMI-8226; experiment: Cytotoxicity against human RPMI8226 cells after 72 hrs by MTT assay; type: cell-based; details: RPMI-8226, 72 h
[13] = system: Bacillus subtilis; experiment: Antimicrobial activity against 10^4 CFU/ml Bacillus subtilis ATCC 6633 after 22 hrs by serial microdilution method; type: functional; details: ATCC 6633, 22 h
[14] = system: Candida albicans; experiment: Antimicrobial activity against Candida albicans ATCC 32354 at 1 ug/ml after 24 hrs by agar diffusion method; type: functional; details: ATCC 32354, 24 h, read-out: DIZ
[15] = system: Pseudomonas aeruginosa; experiment: Antimicrobial activity against 10^7 CFU/ml Pseudomonas aeruginosa ATCC 9027 after 22 hrs by serial microdilution method; type: functional; details: ATCC 9027, 22 h
[16] = system: Escherichia coli; experiment: Antimicrobial activity against Escherichia coli ATCC 25922 at 1 ug/ml after 24 hrs by agar diffusion method; type: functional; details: ATCC 25922, 24 h, read-out: DIZ
[17] = system: Bacillus subtilis; experiment: Antimicrobial activity against Bacillus subtilis ATCC 6633 at 1 ug/ml after 24 hrs by agar diffusion method; type: functional; details: ATCC 6633, 24 h, read-out: DIZ
[18] = system: Candida albicans; experiment: Antimicrobial activity against 10^7 CFU/ml Candida albicans ATCC 32354 after 22 hrs by serial microdilution method; type: functional; details: ATCC 32354, 22 h
[19] = system: Bacillus subtilis; experiment: Antimicrobial activity against 10^7 CFU/ml Bacillus subtilis ATCC 6633 after 22 hrs by serial microdilution method; type: functional; details: ATCC 6633, 22 h
[20] = system: Salmonella enterica; experiment: Antimicrobial activity against 10^7 CFU/ml Salmonella enterica ATCC 14028 after 22 hrs by serial microdilution method; type: functional; details: ATCC 14028, 22 h
[21] = system: Salmonella enterica; experiment: Antimicrobial activity against 10^4 CFU/ml Salmonella enterica ATCC 14028 after 22 hrs by serial microdilution method; type: functional; details: ATCC 14028, 22 h
[22] = system: HEK-293T; experiment: Cytotoxicity against human HEK293T cells after 72 hrs by MTT assay; type: cell-based
[23] = system: Pseudomonas aeruginosa; experiment: Antimicrobial activity against Pseudomonas aeruginosa ATCC 9027 at 0.1 ug/ml after 24 hrs by agar diffusion method; type: functional; details: ATCC 9027, 24 h, read-out: DIZ
[24] = system: Escherichia coli; experiment: Antimicrobial activity against Escherichia coli ATCC 25922 at 0.1 ug/ml after 24 hrs by agar diffusion method; type: functional; details: ATCC 25922, 24 h, read-out: DIZ
[25] = system: Candida albicans; experiment: Antimicrobial activity against Candida albicans ATCC 32354 at 0.1 ug/ml after 24 hrs by agar diffusion method; type: functional; details: ATCC 32354, 24 h, read-out: DIZ
[26] = system: Salmonella enterica; experiment: Antimicrobial activity against Salmonella enterica ATCC 14028 at 0.1 ug/ml after 24 hrs by agar diffusion method; type: functional; details: ATCC 14028, 24 h, read-out: DIZ
[27] = system: Staphylococcus aureus; experiment: Antimicrobial activity against Staphylococcus aureus ATCC 25923 at 0.1 ug/ml after 24 hrs by agar diffusion method; type: functional; details: ATCC 25923, 24 h, read-out: DIZ
[28] = system: Bacillus subtilis; experiment: Antimicrobial activity against Bacillus subtilis ATCC 6633 at 0.1 ug/ml after 24 hrs by agar diffusion method; type: functional; details: ATCC 6633, 24 h, read-out: DIZ

Row | Compound | MBC [1] [µg/mL] | MIC [1] [µg/mL] | MBC [2] [µg/mL] | MIC [2] [µg/mL] | MBC [3] [µg/mL] | MIC [3] [µg/mL] | MBC [4] [µg/mL] | MIC [4] [µg/mL] | IC50 [5] [µg/mL] | zone of inhibition at 1 µg/mL [6] [mm] | MBC [7] [µg/mL] | MIC [7] [µg/mL] | zone of inhibition at 1 µg/mL [8] [mm] | zone of inhibition at 1 µg/mL [9] [mm] | zone of inhibition at 0.1 µg/mL [23] [mm] | zone of inhibition at 0.1 µg/mL [24] [mm] | zone of inhibition at 0.1 µg/mL [25] [mm] | zone of inhibition at 0.1 µg/mL [26] [mm] | zone of inhibition at 0.1 µg/mL [27] [mm] | zone of inhibition at 0.1 µg/mL [28] [mm] | further results
1 | CCCCCCCCCCCCCC[N+]12CC[N+](CCCCC[N+]34CC[N+](CCCCCCCCCCCCCC)(CC3)CC4)(CC1)CC2.[Br-].[Br-].[Br-].[Br-] | 100 | 6.3 | > 100 | 50 | 25 | 25 | 50 | 25 | 219 | 7 | 50 | 50 | 8 | 6 | – | – | – | – | – | – | IC50 [10]: 127 µg/mL; MBC [11]: > 100 µg/mL; MIC [11]: 50 µg/mL; IC50 [12]: 252 µg/mL; MBC [13]: 12.5 µg/mL; MIC [13]: 12.5 µg/mL; zone of inhibition at 1 µg/mL [14]: 0 mm; MBC [15]: > 100 µg/mL; MIC [15]: > 100 µg/mL; zone of inhibition at 1 µg/mL [16]: 7 mm; zone of inhibition at 1 µg/mL [17]: 7 mm; MBC [18]: 25 µg/mL; MIC [18]: 25 µg/mL; MBC [19]: 50 µg/mL; MIC [19]: 12.5 µg/mL; MBC [20]: > 100 µg/mL; MIC [20]: 100 µg/mL; MBC [21]: > 100 µg/mL; MIC [21]: 100 µg/mL; IC50 [22]: 400 µg/mL
2 | CCCCCCCCCCCCCCC[N+]12CC[N+](CCCCC[N+]34CC[N+](CCCCCCCCCCCCCCC)(CC3)CC4)(CC1)CC2 | – | – | – | – | – | – | – | – | – | – | – | – | – | – | 0 | 0 | 0 | 0 | 0 | 0 | –
3 | CCCCCCCCCCCCCCCC[N+]12CC[N+](CCCCC[N+]34CC[N+](CCCCCCCCCCCCCCCC)(CC3)CC4)(CC1)CC2 | – | – | – | – | – | – | – | – | – | – | – | – | – | – | 0 | 0 | 0 | 0 | 0 | 0 | –
4 | CCCCCCCCCCCCCCCCCC[N+]12CC[N+](CCCCC[N+]34CC[N+](CCCCCCCCCCCCCCCCCC)(CC3)CC4)(CC1)CC2 | – | – | – | – | – | – | – | – | – | – | – | – | – | – | 0 | 0 | 0 | 0 | 0 | 0 | –
5 | CC[C@@]1(O)C(=O)OCc2c1cc1n(c2=O)Cc2cc3ccccc3nc2-1 [CAMPTOTHECIN] | – | – | – | – | – | – | – | – | 11.7 (≈ 33.6 µM) | – | – | – | – | – | – | – | – | – | – | – | IC50 [10]: 5.87 µg/mL (≈ 16.9 µM); IC50 [12]: 2.05 µg/mL (≈ 5.88 µM)
6 | O=C(O)c1cn(C2CC2)c2cc(N3CCNCC3)c(F)cc2c1=O [CIPROFLOXACIN] | < 0.8 | < 0.8 | < 0.8 | < 0.8 | > 100 | > 100 | < 0.8 | < 0.8 | – | 35 | 3.1 (≈ 9.36 µM) | 1.6 (≈ 4.83 µM) | 25 | 20 | – | – | – | – | – | – | MBC [11]: < 0.8 µg/mL; MIC [11]: < 0.8 µg/mL; MBC [13]: < 0.8 µg/mL; MIC [13]: < 0.8 µg/mL; zone of inhibition at 1 µg/mL [14]: 0 mm; MBC [15]: 3.1 µg/mL (≈ 9.36 µM); MIC [15]: 1.6 µg/mL (≈ 4.83 µM); zone of inhibition at 1 µg/mL [16]: 30 mm; zone of inhibition at 1 µg/mL [17]: 30 mm; MBC [18]: 100 µg/mL (≈ 302 µM); MIC [18]: 100 µg/mL (≈ 302 µM); MBC [19]: < 0.8 µg/mL; MIC [19]: < 0.8 µg/mL; MBC [20]: < 0.8 µg/mL; MIC [20]: < 0.8 µg/mL; MBC [21]: < 0.8 µg/mL; MIC [21]: < 0.8 µg/mL
